Patent US12441708B2, “Cereblon ligands and bifunctional compounds comprising the same” (Arvinas Operations, Inc., priority 2017, dated 2025)

Experiments:
Assay type in all cases: cell-based
[1] = molecular target: T1, estrogen receptor-alpha (ERα) (Homo sapiens (Human), UniProt P03372); test: Estrogen receptor-alpha (ERα) degradation assay in T47D cells; conditions: % degraded, 5 day incubation, read-out: ER Degradation Dmax
[2] = system: estrogen receptor; test: ERE luciferase assay in T47D-KBluc cells; conditions: Homo sapiens, 24 hours, read-out: ER Target Engagement IC50
Protocol: 1. ERE Luciferase Assay for Compounds in Table 2
T47D-1(Bluc cells (ATCC® ECRL 2 65, T47D human breast cancer cells stably transfected with estrogen responsive element/promoter/luciferase reporter gene) were seeded into 96-well white opaque plates in IR: PM growth medium supplemented with 10% fetal bovine serum (FBS) and allowed to adhere overnight in a 37° C. humidified incubator. The following day, cells were treated with PROTACs in a 12-point concentration curve (top final concentration of 300 nM with subsequent concentrations being 3-fold less with […] being the lowest concentration in the assay). Each PROTAC was tested independently in two experiments on 96-well plates. After 24 hours, media was removed and lysis buffer was added to the wells. Following lysis, Bright-Glo™ Luciferase Assay Substrate (Promega, Madison WI) was added and the luciferase activity was measured using a Cytation 3 plate reader (BioTek™, Winooski, VT). Each compound was assayed in duplicate and the activity was calculated as […] using GraphPad Prism software (San Diego, CA).

[3] = system: c-Myc; test: BRD4 human c-Myc ELISA assay in 22RV-1 cells; conditions: 22Rv1, 18 hours
Protocol: 6. BRD4 Human c-Myc ELISA Assay Protocol
22RV-1 cells were seeded at 30,000 cells/well at a volume of 75 μL/well in RPMI with 10% FBS media in 96-well plates and grown overnight at 37° C. Cells were dosed with compounds at 4× concentration diluted in 0.4% DMSO; compounds were serially diluted 1:3 for 8-point dose curve. Twenty-five (25) ul of the compounds was added to cells for a final concentration starting at 300 nM-0.3 nM or 1 uM-1 nM in 0.1% DMSO and incubated for 18 hours. Media was aspirated, cells were washed 1× with PBS and aspirated. Cells were lysed in 50 ul RIPA buffer (50 mM Tris pH8, 150 mM NaCl, 1% Tx-100, 0.1% SDS, 0.5% sodium deoxycholate) supplemented with protease and phosphatase inhibitors. Plates were incubated on ice for 15 minutes then centrifuged at 4° C. for 10 minutes at 4000 rpm. Fifty (50) ul of cleared lysate from a 96-well assay plate was added into 96-well c-myc ELISA plate (Novex, Life Technologies Catalog #KH02041). c-myc standard was reconstituted with standard diluent buffer; standard curve range of 333 pg/ml-0 pg/ml was prepared, diluted 1:2 for 8-point dose curve. The rest of the assay was performed following the protocol from the c-myc ELISA kit. Data was analyzed and plotted using GraphPad Prism software.

[4] = molecular target: T1, estrogen receptor-alpha (ERα); test: Estrogen receptor-alpha (ERα) degradation assay in MCF7 cells (In-Cell Western / western blot); conditions: % degraded, read-out: ER Degradation Dmax
Protocol: 2. Estrogen Receptor-Alpha (ERα) Degradation Assay in MCF-7 Cells Using Western Blot Method for Table 5
The exemplary novel ERα degraders were assessed for their activity in degrading ERα in MCF-7 cells via western blot. The assay was carried out in the presence of 10% FBS or high percentage of human or mouse serum. Protocols of the western blot assay are described below.
MCF7 cells were grown in DMEM/F12 with 10% FBS and seeded at 24,000 cells per well in 100 μl into 96-well clear tissue culture plates. The following day, the cells were treated with PROTACs in a […] concentration curve with 100 nM being the top concentration and serial dilutions to make the other concentrations (30 nM, 10 nM. 3 nM, 1 nM, and 0.3 nM). At all concentrations, 0.01% DMSO is the final concentration in the well. The following day, the plates are aspirated, washed with 50 μl of cold PBS. The cells are lysed with 50 μl/well 4° C. Cell Lysis Buffer (Catalog #9803; Cell Signaling Technology, Danvers, MA) (20 mM Tris-HCL (pH 7.5), 150 mM NaCl, 1 mM Na2EDTA, 1 mM EGTA, 1% Triton, 2.5 mM sodium pyrophosphate, 1 mM B-glycerophosphate, 1 mM sodium vanadate, 1 μg/ml leupeptin). Lysates were clarified at 16,000× g for 10 minutes, and 2 μg of protein was subjected to SDS-PAGE analysis and followed by immunoblotting according to standard protocols. The antibodies used were ERα (Cell Signaling, Technologies Catalog #8644), and Tubulin (Sigma Catalog #T9026; St. Louis, MO). Detection reagents were Clarity Western ECL substrate (Bio-Rad Catalog 4170-5060; Hercules, CA).
Alternatively, MCF7 cells were grown in DMEM/F12 with 10% FBS and seeded at 24,000 cells per well in 500 μl in 24-well clear tissue culture plates. The following day, the cells were treated with PROTACs in a 5-point concentration curve (100 nM, 33 nM, 11 nM, 3.7 nM, and 1.2 nM) in the presence of 0.01% DMSO. After 72 hours, the wells are aspirated and washed with 500 μl of PBS. The cells are lysed with 100 μl/well 4° C. Cell Lysis Buffer (Catalog #9803; Cell Signaling Technology, Danvers, MA) (20 mM Tris-HCL (pH 7.5), 150 mM NaCl, 1 mM Na2EDTA, 1 mM EGTA, 1% Triton, 2.5 mM sodium pyrophosphate, 1 mM B-glycerophosphate, 1 mM sodium vanadate, 1 ug/ml leupeptin). Lysates were clarified at 16,000× g for 10 minutes, and 2 μg of protein was subjected to SDS-PAGE analysis and followed by immunoblotting according to standard protocols. The antibodies used were ERα (Cell Signaling Technologies Catalog #8644), and Tubulin (Sigma Catalog #T9026; St. Louis, MO). Detection reagents were Clarity Western ECL substrate (Bio-Rad Catalog 4170-5060; Hercules, CA).
3. Estrogen receptor-alpha (ERα) degradation assay using In-Cell Western™ Assay for Table 5
Degradation of ERα by claimed compounds were determined in MCF7 cells using an In-Cell Western™ assay. Briefly, MCF7 cells were plated in 96-well plates (2000 cells per well in 100 μl media) and incubated at 37° C. under an atmosphere of 5% CO2 in a humidified incubator overnight. One-hundred (100) μl of media containing test compound (at 2× concentration) was added to the appropriate wells to provide 11 serially decreasing concentrations (top final concentration, 1 μM then 3-fold less for the next 10 concentrations); a vehicle control (DMSO) was also added for each compound. For each experiment, all compounds were assayed in duplicate plates. Cells were then incubated for 3 or 5 days in the above-mentioned environment. The assay was terminated by removal of media, a single wash with ice-cold PBS and the addition of […] paraformaldehyde (PFA: 4% in PBS). After 15 minutes in PFA at room temperature, the cells were permeabilized in Tris-phosphate-buffered saline with Tween (0.1%) (TBST) supplemented with Triton X-100 (0.5%) for 15 minutes. Cells were then blocked in BSA (TBST with BSA, 3%) for one hour. […] The cells were incubated overnight at 4° C. […]

T1 sequence (P03372 whole entry): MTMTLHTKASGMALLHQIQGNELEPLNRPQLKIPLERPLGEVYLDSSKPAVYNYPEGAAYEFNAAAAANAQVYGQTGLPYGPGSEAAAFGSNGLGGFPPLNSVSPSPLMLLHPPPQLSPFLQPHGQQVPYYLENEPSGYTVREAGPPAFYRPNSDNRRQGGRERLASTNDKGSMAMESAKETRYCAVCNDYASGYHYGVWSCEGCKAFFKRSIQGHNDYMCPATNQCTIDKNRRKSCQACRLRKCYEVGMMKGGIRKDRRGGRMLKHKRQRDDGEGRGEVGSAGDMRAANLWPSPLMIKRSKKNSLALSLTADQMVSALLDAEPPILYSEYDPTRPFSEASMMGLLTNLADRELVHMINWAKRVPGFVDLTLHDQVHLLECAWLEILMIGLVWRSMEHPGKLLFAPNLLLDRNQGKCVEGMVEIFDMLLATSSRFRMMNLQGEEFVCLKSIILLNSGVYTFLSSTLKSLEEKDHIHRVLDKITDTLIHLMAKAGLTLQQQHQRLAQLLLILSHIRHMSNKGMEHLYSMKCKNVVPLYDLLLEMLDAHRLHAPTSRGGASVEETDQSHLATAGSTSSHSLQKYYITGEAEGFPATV

Dmax [1] [%] | IC50 [2] [nM] | IC50 [3] [nM] | Dmax ([4]; 5 day incubation) [%] | Dmax ([4]; 3 day incubation) [%] | SMILES
≤ 50 | ≥ 100 | – | – | – | O=C1CCC(N2CC(Oc3cccc(C4CCN(CCCCOc5ccc([C@H]6c7ccc(O)cc7CC[C@H]6c6ccccc6)cc5)CC4)c3)=CC2=O)C(=O)N1 (mixture of isomers) [PROTAC-109, rac-3-(4-(3-(1-(4-(4-((1R,2S)-6-hydroxy-2-phenyl-1,2,3,4-tetrahydronaphthalen-1-yl)phenoxy)butyl)piperidin-4-yl)phenoxy)-2-oxo-2,5-dihydro-1H-pyrrol-1-yl)piperidine-2,6-dione]
– | < 1 | – | – | ≤ 50 | O=C1CCC(n2ncc(Oc3ccc(O[C@@H]4CCN(CCOc5ccc([C@@H]6c7ccc(O)cc7CC[C@@H]6c6ccc(F)cc6)cc5)C4)nc3)cc2=O)C(=O)N1 (stereo partly drawn) [PROTAC-103, 3-(4-((6-(((R)-1-(2-(4-((1R,2S)-2-(4-fluorophenyl)-6-hydroxy-1,2,3,4-tetrahydronaphthalen-1-yl)phenoxy)ethyl)pyrrolidin-3-yl)oxy)pyridin-3-yl)oxy)-6-oxopyridazin-1(6H)-yl)piperidine-2,6-dione]
– | 10 to 100 | – | – | ≤ 50 | Cc1nc2c(NCCN3CCN(CCOc4ccc(Oc5c(-c6ccc(Br)cc6)sc6cc(O)ccc56)cc4)CC3)cccc2c(=O)n1C1CCC(=O)NC1=O (centres unmarked) [PROTAC-107]
– | 1 to 10 | – | – | ≤ 50 | Cc1nc2c(OCCN3CCN(CCOc4ccc(Oc5c(-c6ccc(Br)cc6)sc6cc(O)ccc56)cc4)CC3)cccc2c(=O)n1C1CCC(=O)NC1=O (centres unmarked) [PROTAC-108, 3-(8-(2-(4-(2-(4-((2-(4-bromophenyl)-6-hydroxybenzo[b]thiophen-3-yl)oxy)phenoxy)ethyl)piperazin-1-yl)ethoxy)-2-methyl-4-oxoquinazolin-3(4H)-yl)piperidine-2,6-dione]

More lines, now with the values behind:

SMILES | Dmax [1] [%] | IC50 [2] [nM] | IC50 [3] [nM] | Dmax ([4]; 5 day incubation) [%] | Dmax ([4]; 3 day incubation) [%]
CCN(C(=O)c1ccc(N2CCN(CCCCCOc3ccc([C@@H]4c5ccc(O)cc5CC[C@@H]4c4ccccc4)cc3)CC2)cc1OC)C1CCC(=O)NC1=O (mixture of isomers) [PROTAC-92, rac-N-(2,6-dioxopiperidin-3-yl)-N-ethyl-4-(4-(5-(4-((1R,2S)-6-hydroxy-2-phenyl-1,2,3,4-tetrahydronaphthalen-1-yl)phenoxy)pentyl)piperazin-1-yl)-2-methoxybenzamide] | ≤ 50 | – | – | – | –
O=C1CCC(N2CC(Oc3cccc(C4CCN(CCCCOc5ccc([C@@H]6c7ccc(O)cc7CC[C@@H]6c6ccccc6)cc5)CC4)c3)=CC2=O)C(=O)N1 (mixture of isomers) [PROTAC-104, rac-3-(4-(3-(1-(4-(4-((1R,2S)-6-hydroxy-2-phenyl-1,2,3,4-tetrahydronaphthalen-1-yl)phenoxy)butyl)piperidin-4-yl)phenoxy)-2-oxo-2,5-dihydro-1H-pyrrol-1-yl)piperidine-2,6-dione] | ≤ 50 | 1 to 10 | – | – | –
O=C1CCC(N2CC(Oc3cccc(C4CCN(CCCOc5ccc([C@H]6c7ccc(O)cc7CC[C@H]6c6ccccc6)cc5)CC4)c3)=CC2=O)C(=O)N1 (mixture of isomers) [PROTAC-105, rac-3-(4-(3-(1-(3-(4-((1R,2S)-6-hydroxy-2-phenyl-1,2,3,4-tetrahydronaphthalen-1-yl)phenoxy)propyl)piperidin-4-yl)phenoxy)-2-oxo-2,5-dihydro-1H-pyrrol-1-yl)piperidine-2,6-dione] | ≤ 50 | 1 to 10 | – | – | –
Cc1sc2c(c1C)C(c1ccc(Cl)cc1)=NC(CC(=O)NCCCOCCCOc1ccc3ncc(-n4ccc(=O)[nH]c4=O)cc3c1)c1nnc(C)n1-2 (centres unmarked) [PROTAC-1, 2-(4-(4-chlorophenyl)-2,3,9-trimethyl-6H-thieno[3,2-f] [1,2,4]triazolo[4,3-a][1,4]diazepin-6-yl)-N-(3-(3-((3-(2,4-dioxo-3,4-dihydropyrimidin-1(2H)-yl)quinolin-6-yl)oxy)propoxy)propyl)acetamide] | – | – | ≥ 100 | – | –
O=C1CCC(N2CC(c3ccc(N4CCN(CC5CCN(c6ccc([C@@H]7c8ccc(O)cc8CC[C@@H]7c7ccccc7)cc6)CC5)CC4)cc3)=CC2=O)C(=O)N1 (stereo partly drawn) [PROTAC-89, 3-[3-[4-[4-[[1-[4-[(1R,2S)-6-hydroxy-2-phenyl-tetralin-1-yl]phenyl]-4-piperidyl]methyl]piperazin-1-yl]phenyl]-5-oxo-2H-pyrrol-1-yl]piperidine-2,6-dione] | – | 1 to 10 | – | > 75 | –
O=C1CCC(n2ncc(N3CCN(CC4CCN(c5ccc([C@@H]6c7ccc(O)cc7CC[C@@H]6c6ccccc6)cc5)CC4)CC3)cc2=O)C(=O)N1 (stereo partly drawn) [PROTAC-102, 3-[4-[4-[[1-[4-[(1R, 2 S)-6-hydroxy-2-phenyl-tetralin-1-yl]phenyl]-4-piperidyl]methyl]piperazin-1-yl]-6-oxo-pyridazin-1-yl]piperidine-2,6-dione] | – | 1 to 10 | – | > 75 | –
O=C1CCC(N2CC(Oc3cccc(C4CCN(CCCOc5ccc([C@@H]6c7ccc(O)cc7CC[C@@H]6c6ccccc6)cc5)CC4)c3)=CC2=O)C(=O)N1 (stereo partly drawn) [PROTAC-106, 3-(4-(3-(1-(3-(4-((1R,2 S)-6-hydroxy-2-phenyl-1,2,3,4-tetrahydronaphthalen-1-yl)phenoxy)propyl)piperidin-4-yl)phenoxy)-2-oxo-2,5-dihydro-1H-pyrrol-1-yl)piperidine-2,6-dione] | ≤ 50 | < 1 | – | – | –
